For this experiment, the system named is bacteria. Put plainly: Effect of metiram alone on bacteria.

The values that follow come from patent publication US20090011935A1, “Method of Inducing Tolerance of Plants Against Bacterioses” (BASF SE, priority 2006, published 2009).

metiram: the effect on bacteria entry was “very close to zero”.
